Legend:
Experiment in all cases: KinaseProfiler kinase panel
Type in all cases: biochemical
Flt3(h) = Flt3(h) (Homo sapiens (Human), UniProt P36888)
CDK3/cyclinE(h) = CDK3/cyclinE(h) (Homo sapiens (Human), UniProt Q00526)
KDR(h) = KDR(h) (Homo sapiens (Human), UniProt P35968)
PASK(h) = PASK(h) (Homo sapiens (Human), UniProt Q96RG2)
Axl(h) = Axl(h) (Homo sapiens (Human), UniProt P30530)
Yes(h) = Yes(h) (Homo sapiens (Human), UniProt P07947)
Fes(h) = Fes(h) (Homo sapiens (Human), UniProt P07332)
IRAK4(h) = IRAK4(h) (Homo sapiens (Human), UniProt Q9NWZ3)
IRAK4(h), sequence (Q9NWZ3 whole entry): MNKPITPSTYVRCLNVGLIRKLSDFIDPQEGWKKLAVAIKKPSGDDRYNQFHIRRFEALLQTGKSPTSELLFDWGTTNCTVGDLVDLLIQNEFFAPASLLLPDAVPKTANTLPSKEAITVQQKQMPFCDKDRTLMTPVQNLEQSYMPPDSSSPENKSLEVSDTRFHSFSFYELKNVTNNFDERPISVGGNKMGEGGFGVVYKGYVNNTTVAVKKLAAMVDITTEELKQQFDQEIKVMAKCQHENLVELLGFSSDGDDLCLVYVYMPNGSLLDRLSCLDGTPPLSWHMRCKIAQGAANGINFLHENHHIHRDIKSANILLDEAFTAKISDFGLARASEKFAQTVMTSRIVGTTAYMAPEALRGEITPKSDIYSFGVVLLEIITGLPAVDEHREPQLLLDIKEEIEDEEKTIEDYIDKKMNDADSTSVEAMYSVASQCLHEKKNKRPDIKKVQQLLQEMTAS

IKKα(h) = IKKα(h) (Homo sapiens (Human), UniProt O15111)
CK2(h) = CK2(h) (Homo sapiens (Human), UniProt P68400)
CK1δ(h) = CK1δ(h) (Homo sapiens (Human), UniProt P48730)
GSK3β(h) = GSK3β(h) (Homo sapiens (Human), UniProt P49841)
GSK3β(h), sequence (P49841 whole entry): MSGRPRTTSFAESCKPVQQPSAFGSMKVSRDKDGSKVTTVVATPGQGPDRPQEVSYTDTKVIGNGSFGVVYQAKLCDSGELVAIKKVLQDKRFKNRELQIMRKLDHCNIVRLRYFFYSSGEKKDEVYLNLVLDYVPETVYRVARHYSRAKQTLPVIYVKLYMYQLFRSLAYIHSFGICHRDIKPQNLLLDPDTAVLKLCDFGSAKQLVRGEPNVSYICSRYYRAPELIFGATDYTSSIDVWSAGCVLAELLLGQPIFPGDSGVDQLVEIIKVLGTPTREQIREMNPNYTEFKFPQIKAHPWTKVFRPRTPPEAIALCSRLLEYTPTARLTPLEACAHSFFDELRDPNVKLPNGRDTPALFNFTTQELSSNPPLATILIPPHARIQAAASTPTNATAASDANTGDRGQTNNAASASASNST

Fgr(h) = Fgr(h) (Homo sapiens (Human), UniProt P09769)
Fgr(h), sequence (P09769 whole entry): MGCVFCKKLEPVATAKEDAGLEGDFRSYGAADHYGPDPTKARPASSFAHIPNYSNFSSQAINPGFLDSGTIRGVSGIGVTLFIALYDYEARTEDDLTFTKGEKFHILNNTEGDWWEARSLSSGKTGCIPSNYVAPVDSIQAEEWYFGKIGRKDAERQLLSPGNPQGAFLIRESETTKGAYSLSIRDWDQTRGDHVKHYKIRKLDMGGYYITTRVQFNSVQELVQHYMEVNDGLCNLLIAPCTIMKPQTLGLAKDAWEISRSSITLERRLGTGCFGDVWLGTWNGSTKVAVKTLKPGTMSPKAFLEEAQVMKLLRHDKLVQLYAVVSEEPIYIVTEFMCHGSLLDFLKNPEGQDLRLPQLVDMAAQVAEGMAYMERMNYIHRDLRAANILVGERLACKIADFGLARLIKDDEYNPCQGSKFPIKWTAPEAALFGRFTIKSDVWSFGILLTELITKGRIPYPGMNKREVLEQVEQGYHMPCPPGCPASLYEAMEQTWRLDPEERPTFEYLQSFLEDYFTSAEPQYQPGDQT

MST1(h) = MST1(h) (Homo sapiens (Human), UniProt Q13043)
Met(Y1248C)(h) = Met(Y1248C)(h) (Homo sapiens (Human), UniProt P08581, Y1248C)
EphA1(h) = EphA1(h) (Homo sapiens (Human), UniProt P21709)
Met(h) = Met(h) (Homo sapiens (Human), UniProt P08581)
ULK3(h) = ULK3(h) (Homo sapiens (Human), UniProt Q6PHR2)
CaMKIV(h) = CaMKIV(h) (Homo sapiens (Human), UniProt Q16566)
LKB1(h) = LKB1(h) (Homo sapiens (Human), UniProt Q15831)
LKB1(h), sequence (Q15831 whole entry): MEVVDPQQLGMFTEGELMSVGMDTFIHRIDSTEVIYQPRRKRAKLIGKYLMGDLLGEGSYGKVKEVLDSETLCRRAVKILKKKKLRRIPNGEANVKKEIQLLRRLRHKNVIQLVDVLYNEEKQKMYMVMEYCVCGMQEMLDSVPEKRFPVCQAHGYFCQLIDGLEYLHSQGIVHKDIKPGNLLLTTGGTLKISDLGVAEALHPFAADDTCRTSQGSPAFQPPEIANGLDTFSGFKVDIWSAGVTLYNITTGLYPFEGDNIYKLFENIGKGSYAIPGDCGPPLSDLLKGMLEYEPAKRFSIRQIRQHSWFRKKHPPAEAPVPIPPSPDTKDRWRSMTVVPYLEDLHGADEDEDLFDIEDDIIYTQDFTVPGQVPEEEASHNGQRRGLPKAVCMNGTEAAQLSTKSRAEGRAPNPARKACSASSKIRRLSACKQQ
LKB1(h), sequence (Q7RTN6 whole entry partner): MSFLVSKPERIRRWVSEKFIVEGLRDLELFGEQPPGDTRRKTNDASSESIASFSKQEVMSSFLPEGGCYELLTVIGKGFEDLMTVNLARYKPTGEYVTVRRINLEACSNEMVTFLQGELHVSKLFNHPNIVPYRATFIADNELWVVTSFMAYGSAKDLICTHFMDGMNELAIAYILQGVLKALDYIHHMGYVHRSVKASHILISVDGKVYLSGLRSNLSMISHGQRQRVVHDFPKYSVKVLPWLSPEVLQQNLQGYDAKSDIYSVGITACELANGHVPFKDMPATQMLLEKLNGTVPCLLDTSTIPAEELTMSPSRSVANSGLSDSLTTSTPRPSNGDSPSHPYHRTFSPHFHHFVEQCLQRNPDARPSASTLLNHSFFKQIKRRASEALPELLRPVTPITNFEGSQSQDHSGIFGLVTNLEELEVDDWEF
LKB1(h), sequence (Q9Y376 whole entry partner): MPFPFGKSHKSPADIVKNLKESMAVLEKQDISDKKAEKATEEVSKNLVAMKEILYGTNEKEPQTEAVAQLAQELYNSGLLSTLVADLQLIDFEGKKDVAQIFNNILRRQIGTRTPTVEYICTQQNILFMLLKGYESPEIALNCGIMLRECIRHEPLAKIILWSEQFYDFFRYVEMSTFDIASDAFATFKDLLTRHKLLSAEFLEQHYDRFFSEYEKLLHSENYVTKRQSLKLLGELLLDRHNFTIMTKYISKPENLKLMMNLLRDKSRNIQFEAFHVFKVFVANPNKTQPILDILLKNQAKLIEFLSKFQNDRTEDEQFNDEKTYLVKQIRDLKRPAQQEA

MSSK1(h) = MSSK1(h) (Homo sapiens (Human), UniProt Q9UPE1)
ErbB4(h) = ErbB4(h) (Homo sapiens (Human), UniProt Q15303)
Snk(h) = Snk(h) (Homo sapiens (Human), UniProt Q9NYY3)
CSK(h) = CSK(h) (Homo sapiens (Human), UniProt P41240)
EphA7(h) = EphA7(h) (Homo sapiens (Human), UniProt Q15375)
Abl(Y253F)(h) = Abl(Y253F)(h) (Homo sapiens (Human), UniProt P00519, Y253F)
DAPK2(h) = DAPK2(h) (Homo sapiens (Human), UniProt Q9UIK4)
DAPK2(h), sequence (Q9UIK4 whole entry): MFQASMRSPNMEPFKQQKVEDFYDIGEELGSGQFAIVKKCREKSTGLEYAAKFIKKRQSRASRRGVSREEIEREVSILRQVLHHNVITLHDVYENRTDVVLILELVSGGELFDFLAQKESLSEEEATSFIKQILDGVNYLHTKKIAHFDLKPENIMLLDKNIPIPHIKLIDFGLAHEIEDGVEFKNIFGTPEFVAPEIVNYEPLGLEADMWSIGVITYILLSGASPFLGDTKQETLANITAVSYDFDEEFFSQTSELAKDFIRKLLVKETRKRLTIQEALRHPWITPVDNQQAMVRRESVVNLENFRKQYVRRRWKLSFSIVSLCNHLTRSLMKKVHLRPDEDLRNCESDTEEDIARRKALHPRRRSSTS

CaMKIδ(h) = CaMKIδ(h) (Homo sapiens (Human), UniProt Q8IU85)
EphA3(h) = EphA3(h) (Homo sapiens (Human), UniProt P29320)
FAK(h) = FAK(h) (Homo sapiens (Human), UniProt Q05397)
FGFR4(h) = FGFR4(h) (Homo sapiens (Human), UniProt P22455)
EphA5(h) = EphA5(h) (Homo sapiens (Human), UniProt P54756)
EphB4(h) = EphB4(h) (Homo sapiens (Human), UniProt P54760)
EphB4(h), sequence (P54760 16-987): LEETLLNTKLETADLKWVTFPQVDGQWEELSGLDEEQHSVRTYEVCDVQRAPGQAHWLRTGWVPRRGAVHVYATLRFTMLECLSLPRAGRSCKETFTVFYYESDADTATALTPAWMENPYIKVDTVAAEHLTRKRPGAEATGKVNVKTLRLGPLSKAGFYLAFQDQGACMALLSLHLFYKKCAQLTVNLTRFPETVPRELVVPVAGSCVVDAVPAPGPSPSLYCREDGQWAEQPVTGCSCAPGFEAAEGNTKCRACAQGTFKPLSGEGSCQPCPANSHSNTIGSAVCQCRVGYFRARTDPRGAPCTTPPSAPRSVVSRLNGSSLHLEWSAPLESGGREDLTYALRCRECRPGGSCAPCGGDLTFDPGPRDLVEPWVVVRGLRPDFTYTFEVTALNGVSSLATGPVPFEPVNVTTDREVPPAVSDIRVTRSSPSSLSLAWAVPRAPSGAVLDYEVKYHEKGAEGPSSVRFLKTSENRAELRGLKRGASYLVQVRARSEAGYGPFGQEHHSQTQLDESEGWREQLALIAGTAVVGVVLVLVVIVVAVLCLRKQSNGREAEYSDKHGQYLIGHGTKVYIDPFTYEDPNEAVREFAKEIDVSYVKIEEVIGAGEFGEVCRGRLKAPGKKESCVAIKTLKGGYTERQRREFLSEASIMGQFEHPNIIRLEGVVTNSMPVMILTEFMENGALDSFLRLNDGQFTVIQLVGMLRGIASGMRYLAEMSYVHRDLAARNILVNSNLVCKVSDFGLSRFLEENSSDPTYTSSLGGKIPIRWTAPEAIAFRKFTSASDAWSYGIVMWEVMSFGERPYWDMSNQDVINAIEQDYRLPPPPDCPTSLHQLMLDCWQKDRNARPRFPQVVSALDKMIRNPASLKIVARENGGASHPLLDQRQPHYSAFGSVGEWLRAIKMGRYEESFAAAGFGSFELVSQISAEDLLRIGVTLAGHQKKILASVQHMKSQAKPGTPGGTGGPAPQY

MKK4(m) = MKK4(m) (Mus musculus (Mouse), UniProt P47809)
FGFR2(N549H)(h) = FGFR2(N549H)(h) (Homo sapiens (Human), UniProt P21802, N549H)
FGFR2(N549H)(h), sequence (P21802 22-821 N549H): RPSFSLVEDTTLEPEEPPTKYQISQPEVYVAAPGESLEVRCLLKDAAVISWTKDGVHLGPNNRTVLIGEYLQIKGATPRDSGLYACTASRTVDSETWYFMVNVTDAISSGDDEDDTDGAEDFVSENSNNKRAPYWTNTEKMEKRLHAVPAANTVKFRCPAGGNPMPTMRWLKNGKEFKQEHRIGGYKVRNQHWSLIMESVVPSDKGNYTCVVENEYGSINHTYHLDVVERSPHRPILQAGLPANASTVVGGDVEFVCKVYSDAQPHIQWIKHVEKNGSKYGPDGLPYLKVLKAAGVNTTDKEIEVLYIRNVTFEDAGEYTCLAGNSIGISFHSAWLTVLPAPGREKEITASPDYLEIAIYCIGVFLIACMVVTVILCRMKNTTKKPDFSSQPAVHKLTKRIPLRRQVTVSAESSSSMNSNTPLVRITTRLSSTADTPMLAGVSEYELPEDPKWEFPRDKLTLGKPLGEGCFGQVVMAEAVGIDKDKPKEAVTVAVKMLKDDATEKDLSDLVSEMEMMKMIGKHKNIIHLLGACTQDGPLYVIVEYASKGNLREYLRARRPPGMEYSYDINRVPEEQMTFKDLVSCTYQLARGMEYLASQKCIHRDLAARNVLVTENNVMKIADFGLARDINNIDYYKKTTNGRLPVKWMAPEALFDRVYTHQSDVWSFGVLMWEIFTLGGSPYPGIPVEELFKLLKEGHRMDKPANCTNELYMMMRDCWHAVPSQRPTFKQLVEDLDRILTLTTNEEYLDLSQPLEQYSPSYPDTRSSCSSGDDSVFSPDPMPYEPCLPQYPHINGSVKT

Tie2(R849W)(h) = Tie2(R849W)(h) (Homo sapiens (Human), UniProt Q02763, R849W)
EphA8(h) = EphA8(h) (Homo sapiens (Human), UniProt P29322)
TBK1(h) = TBK1(h) (Homo sapiens (Human), UniProt Q9UHD2)
EphA2(h) = EphA2(h) (Homo sapiens (Human), UniProt P29317)
Arg(h) = Arg(h) (Homo sapiens (Human), UniProt P42684)

Work on `CCn1c(N2CCNCC2)nc2c(Br)c(Br)c(Br)c(Br)c21` [Compound 416, 4,5,6,7-tetrabromo-1-ethyl-2-(piperazin-1-yl)-1H-benzo[d]imidazole] yielded a remaining activity at 1 µM (Flt3(h)) of 0%, a remaining activity at 1 µM (CDK3/cyclinE(h)) of 16% and a remaining activity at 1 µM (KDR(h)) of 28%. For the same compound, the remaining activity at 1 µM (PASK(h)) was 28%, the remaining activity at 1 µM (Axl(h)) was 36% and the remaining activity at 1 µM (Yes(h)) was 48%. The remaining activity at 1 µM (Fes(h)) was 52%, the remaining activity at 1 µM (IRAK4(h)) was 52% and the remaining activity at 1 µM (IKKα(h)) was 56%. It also gave a remaining activity at 1 µM (CK2(h)) of 59%, a remaining activity at 1 µM (CK1δ(h)) of 62% and a remaining activity at 1 µM (GSK3β(h)) of 66%. For the same compound, the remaining activity at 1 µM (Fgr(h)) was 67%, the remaining activity at 1 µM (MST1(h)) was 71% and the remaining activity at 1 µM (Met(Y1248C)(h)) was 73%. It also gave a remaining activity at 1 µM (EphA1(h)) of 75%, a remaining activity at 1 µM (Met(h)) of 81% and a remaining activity at 1 µM (ULK3(h)) of 84%. The remaining activity at 1 µM (CaMKIV(h)) was 85%, the remaining activity at 1 µM (LKB1(h)) was 86% and the remaining activity at 1 µM (MSSK1(h)) was 87%. It also gave a remaining activity at 1 µM (ErbB4(h)) of 89%, a remaining activity at 1 µM (Snk(h)) of 90% and a remaining activity at 1 µM (CSK(h)) of 91%. It also gave a remaining activity at 1 µM (EphA7(h)) of 91%, a remaining activity at 1 µM (Abl(Y253F)(h)) of 92% and a remaining activity at 1 µM (DAPK2(h)) of 92%. The remaining activity at 1 µM (CaMKIδ(h)) was 94%, the remaining activity at 1 µM (EphA3(h)) was 94% and the remaining activity at 1 µM (FAK(h)) was 94%. For the same compound, the remaining activity at 1 µM (FGFR4(h)) was 94%, the remaining activity at 1 µM (EphA5(h)) was 99% and the remaining activity at 1 µM (EphB4(h)) was 100%. For the same compound, the remaining activity at 1 µM (MKK4(m)) was 100%, the remaining activity at 1 µM (FGFR2(N549H)(h)) was 101% and the remaining activity at 1 µM (Tie2(R849W)(h)) was 101%. It also gave a remaining activity at 1 µM (EphA8(h)) of 102%, a remaining activity at 1 µM (TBK1(h)) of 104% and a remaining activity at 1 µM (EphA2(h)) of 106%. For the same compound, the remaining activity at 1 µM (Arg(h)) was 119%.

Source: patent publication US8604217B2, “Compound, a process for its preparation, a pharmaceutical composition, use of a compound, a method for modulating or regulating serine/threonine kinases and a serine/threonine kinases modulating agent” (Selvita S.A., priority 2009, dated 2013)
